Structures are written as SMILES.

As a reminder, the AC50 is the concentration giving half of the maximal activity seen. A higher AC50 goes with activity only at high concentration.

The target in experiment [1] is T1, Alpha-1A adrenergic receptor (Homo sapiens, UniProt P35348).
T1 sequence (P35348 whole entry): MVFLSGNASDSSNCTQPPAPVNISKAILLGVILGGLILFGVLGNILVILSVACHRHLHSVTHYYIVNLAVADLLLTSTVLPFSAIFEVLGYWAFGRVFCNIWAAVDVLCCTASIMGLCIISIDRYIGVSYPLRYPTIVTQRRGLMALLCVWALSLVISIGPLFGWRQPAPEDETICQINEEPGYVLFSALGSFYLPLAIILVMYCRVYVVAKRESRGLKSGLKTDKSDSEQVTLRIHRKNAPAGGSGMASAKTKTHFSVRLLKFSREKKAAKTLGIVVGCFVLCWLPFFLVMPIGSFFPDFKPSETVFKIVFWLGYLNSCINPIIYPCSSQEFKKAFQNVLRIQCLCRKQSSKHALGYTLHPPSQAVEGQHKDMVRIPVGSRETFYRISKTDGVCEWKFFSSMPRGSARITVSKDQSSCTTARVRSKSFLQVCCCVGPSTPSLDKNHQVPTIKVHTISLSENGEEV
Format: functional, cell-based.

For experiment [2], the target named is T2, Glucocorticoid receptor (Homo sapiens, UniProt P04150).
T2 sequence (P04150 whole entry): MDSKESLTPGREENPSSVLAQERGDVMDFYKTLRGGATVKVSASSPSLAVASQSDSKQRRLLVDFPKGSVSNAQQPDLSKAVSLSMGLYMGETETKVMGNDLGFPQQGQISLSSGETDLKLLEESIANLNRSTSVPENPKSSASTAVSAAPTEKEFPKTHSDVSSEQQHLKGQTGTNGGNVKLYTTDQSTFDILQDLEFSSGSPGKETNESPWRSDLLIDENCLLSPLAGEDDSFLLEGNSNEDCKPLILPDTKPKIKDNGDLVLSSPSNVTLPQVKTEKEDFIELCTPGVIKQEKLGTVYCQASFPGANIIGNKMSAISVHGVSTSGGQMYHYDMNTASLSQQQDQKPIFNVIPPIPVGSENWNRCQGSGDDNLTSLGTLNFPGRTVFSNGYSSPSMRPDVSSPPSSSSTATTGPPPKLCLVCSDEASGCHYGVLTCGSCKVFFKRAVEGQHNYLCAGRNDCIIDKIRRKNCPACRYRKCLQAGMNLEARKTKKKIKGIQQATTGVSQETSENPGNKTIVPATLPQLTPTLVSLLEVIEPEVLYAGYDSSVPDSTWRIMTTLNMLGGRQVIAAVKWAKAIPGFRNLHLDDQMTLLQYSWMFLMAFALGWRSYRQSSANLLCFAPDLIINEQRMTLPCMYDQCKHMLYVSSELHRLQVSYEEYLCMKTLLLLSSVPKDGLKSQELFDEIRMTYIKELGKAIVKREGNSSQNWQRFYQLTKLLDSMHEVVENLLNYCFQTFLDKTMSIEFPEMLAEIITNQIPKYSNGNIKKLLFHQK
Type of experiment: functional.

Experiment [3] concerns the target T2, Glucocorticoid receptor. Type of experiment: functional. This is another data set of the same source.
Experiment [4] addresses T3, Nuclear receptor subfamily 1 group I member 3 (Homo sapiens, UniProt Q14994).
T3 sequence (Q14994 whole entry): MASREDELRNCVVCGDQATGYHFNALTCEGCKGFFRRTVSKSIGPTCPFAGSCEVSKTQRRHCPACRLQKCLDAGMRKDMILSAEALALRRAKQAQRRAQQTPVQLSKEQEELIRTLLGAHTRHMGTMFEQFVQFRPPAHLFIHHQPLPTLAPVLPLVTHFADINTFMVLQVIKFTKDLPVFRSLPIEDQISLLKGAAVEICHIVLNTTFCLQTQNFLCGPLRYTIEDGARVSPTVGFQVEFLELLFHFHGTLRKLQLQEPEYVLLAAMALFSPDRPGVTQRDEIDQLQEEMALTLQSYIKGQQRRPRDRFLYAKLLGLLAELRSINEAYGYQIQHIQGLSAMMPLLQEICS
Type of experiment: functional.

The target in experiment [5] is T4, Oxysterols receptor LXR-beta (Homo sapiens, UniProt P55055).
T4 sequence (P55055 whole entry): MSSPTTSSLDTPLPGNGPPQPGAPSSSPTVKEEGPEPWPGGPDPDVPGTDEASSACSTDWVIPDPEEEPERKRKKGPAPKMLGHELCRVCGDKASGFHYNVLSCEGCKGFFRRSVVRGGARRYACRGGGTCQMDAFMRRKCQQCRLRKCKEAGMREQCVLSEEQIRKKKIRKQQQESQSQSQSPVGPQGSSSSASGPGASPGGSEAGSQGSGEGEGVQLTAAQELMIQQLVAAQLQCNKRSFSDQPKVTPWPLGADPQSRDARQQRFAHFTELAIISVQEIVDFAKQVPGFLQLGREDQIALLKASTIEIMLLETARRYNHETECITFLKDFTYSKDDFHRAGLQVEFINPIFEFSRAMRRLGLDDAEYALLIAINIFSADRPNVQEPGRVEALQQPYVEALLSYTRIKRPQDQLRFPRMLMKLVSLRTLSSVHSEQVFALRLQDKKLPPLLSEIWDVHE
Type of experiment: functional.

Experiment [6] addresses Synaptic vesicular amine transporter (Rattus norvegicus, UniProt Q01827). Format: functional.
Also: assay procedure not described here.

Chain of Synaptic vesicular amine transporter (Q01827 whole entry): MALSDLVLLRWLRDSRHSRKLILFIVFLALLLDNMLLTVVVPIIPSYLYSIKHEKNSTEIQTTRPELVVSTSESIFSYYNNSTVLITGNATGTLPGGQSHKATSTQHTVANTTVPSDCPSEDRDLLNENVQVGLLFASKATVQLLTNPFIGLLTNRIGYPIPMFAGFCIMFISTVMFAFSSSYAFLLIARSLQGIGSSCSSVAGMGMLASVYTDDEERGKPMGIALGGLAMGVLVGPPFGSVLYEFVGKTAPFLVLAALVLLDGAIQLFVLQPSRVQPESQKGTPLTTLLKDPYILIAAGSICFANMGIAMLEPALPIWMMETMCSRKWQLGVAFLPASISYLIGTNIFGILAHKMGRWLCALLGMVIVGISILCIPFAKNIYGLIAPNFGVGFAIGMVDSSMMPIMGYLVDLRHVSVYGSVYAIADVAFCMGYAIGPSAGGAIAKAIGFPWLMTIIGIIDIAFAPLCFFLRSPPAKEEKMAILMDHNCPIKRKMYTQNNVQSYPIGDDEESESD

`Nc1nc2ccc(OC(F)(F)F)cc2s1` [RILUZOLE]: the AC50 in experiment [1] was > 30 µM.

As to `[H]/N=C(/N)c1ccc(NCc2nc3cc(C(=O)N(CCC(=O)O)c4ccccn4)ccc3n2C)cc1` [DABIGATRAN], the AC50 at Glucocorticoid receptor [2] and at Glucocorticoid receptor [3] was > 30 µM each time.

Take `CC(C)c1c(C(=O)Nc2ccccc2)c(-c2ccccc2)c(-c2ccc(F)cc2)n1CC[C@@H](O)C[C@@H](O)CC(=O)O` [ATORVASTATIN]: the values for the AC50 in experiment [4] and in experiment [5] were > 10 µM and > 30 µM, respectively.

In experiment [6], `CCNC(C)Cc1cccc(C(F)(F)F)c1` (stereo unspecified) [FENFLURAMINE] registered an AC50 of 3.71 µM.
